Like-named read-outs stand apart in the source and are kept apart here.
Experiments:
Daudi cells = assay: Inhibition of human Daudi lymphoma cell proliferation (Cell-Titer Glo); type: cell-based; conditions: 3 days incubation, read-out: Anti-Proliferative Activity Against Daudi cells IC50
Outline: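 Daudi cells in RPMI 1640 with 10% FBS were seeded and grown 24 h, then exposed for 3 days (37 °C, 5% CO2) to 10-point 3-fold serial dilutions at 0.25% final DMSO. Viability was read by CellTiter-Glo ATP luminescence, and IC50 was fitted from % inhibition against top/bottom controls.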

CD-1 mouse plasma = assay: Plasma protein binding rate assay (equilibrium dialysis); type: in vitro ADME; conditions: compound 1 μM, equilibrium dialysis 6 hours at 37° C.
Procedure: 1. CD-1 mouse plasma (BioIVT)
1. Formulation of a buffer solution containing 100 mM sodium phosphate and 150 mM NaCl: An alkaline solution containing Na2HPO4 (14.2 g/L) and NaCl (8.77 g/L) was formulated with ultrapure water. An acidic solution containing NaH2PO4 (12.0 g/L) and NaCl (8.77 g/L) was formulated with ultrapure water. The alkaline solution was titrated with the acidic solution until the pH value was 7.4, thus formulating the buffer solution containing 100 mM sodium phosphate and 150 mM NaCl.
2. Preparation of dialysis membrane: The dialysis membrane was immersed in ultrapure water for 60 minutes to separate the membrane into two pieces, then immersed in 20% ethanol for 20 minutes, and finally immersed in a buffer for dialysis for 20 minutes.
3. Preparation of plasma: Frozen plasma was thawed rapidly at room temperature. Thereafter, the plasma was centrifuged at 3220 g for 10 minutes at 4° C. to remove clots, and the supernatant was collected into a new centrifuge tube. The pH values of plasma were measured and recorded. The plasma with a pH value of 7 to 8 was used.
4. Formulation of compound-containing plasma samples: A 10 mM stock solution of the compound of the present disclosure or the positive control compound was diluted with DMSO to obtain a 200 μM working solution. 3 μl of the 200 μM working solution of the compound was added into 597 μl of mouse plasma to obtain a plasma sample with a final concentration of 1 μM.
5. Steps of equilibrium dialysis: The dialysis device was assembled according to the operating instructions. 120 μL of a plasma sample containing 1 μM compound was added on one side of the dialysis membrane, and an equal volume of dialysate (phosphate buffer solution) was added on the other side. Duplicate samples were set in the experiment. The dialysis plate was sealed and placed in an incubation device where the samples were incubated at 37° C. in an atmosphere containing 5% CO2 for 6 hours with a rotational speed of about 100 rpm. After the incubation was complete, the sealing membrane was removed. 50 μl of samples were respectively aspirated from the buffer solution side and the plasma side of each well and transferred into different wells of a new plate. 50 μl of blank plasma was added into the sample obtained from the phosphate buffer solution side, and an equal volume of blank phosphate buffer solution was added into the plasma sample, followed by the addition of 300 μl of acetonitrile containing the internal standard to precipitate protein. The sample was vortexed for 5 minutes and centrifuged at 3220 g for 30 minutes at 4° C. 100 μl of the supernatant was aspirated and transferred to the sample plate, mixed well with 100 μL of ultrapure water, and used for LC-MS/MS analysis.
The peak areas of the compounds on the buffer solution side and the plasma side were determined. The formula for calculating the plasma protein binding rate of the compound was as follows:
% Free rate=(the ratio of the peak area of the compound to the peak area of the internal standard on the buffer solution side/the ratio of the peak area of the compound to the peak area of the internal standard on the plasma side)×100
% Binding rate=100−% free rate

| SMILES | IC50 (Daudi cells; Homo sapiens, 72 h) [nM] | % Binding Rate (CD-1 mouse plasma) | IC50 (Daudi cells) [nM] |
| --- | --- | --- | --- |
| Cc1cc(Nc2ccc(-c3cnc([C@H]4CC[C@H](NC(=O)OC(C)C)CC4)s3)c(P3(=O)CCC3)c2)n[nH]1 [Example 103, isopropyl trans-(4-(5-(4-((5-methyl-1H-pyrazol-3-yl)amino)-2-(1-oxophosphetan-1-yl)phenyl)thiazol-2-yl)cyclohexyl)carbamate] | 47 | 98% | – |
| CC(C)OC(=O)Nc1ccc(-c2cnc([C@H]3CC[C@H](NC(=O)OC(C)C)CC3)s2)c(S(=N)(=O)C2CC2)c1 (stereo partly drawn) [Example 68, isopropyl trans-N-[3-(cyclopropylsulfonimidoyl)-4-[2-[4-(isopropoxycarbonylamino)cyclohexyl]thiazol-5-yl]phenyl]carbamate] | 100 | 97% | – |
| CC(C)OC(=O)Nc1ccc(-c2cnc([C@H]3CC[C@H](NC(=O)OC(C)C)CC3)s2)c(P(C)(C)=O)c1 [Example 1, isopropyl trans-N-[3-dimethylphosphoryl-4-[2-[4-(isopropoxycarbonylamino)cyclohexyl]thiazol-5-yl]phenyl]carbamate] | 1620 | 94% | – |
| CC(C)OC(=O)Nc1ccc(-c2cnc([C@H]3CC[C@H](NC(=O)OC(C)C)CC3)s2)c(S(=O)(=O)C2CC2)c1 [Example 33, isopropyl trans-N-[3-cyclopropylsulfonyl-4-[2-[4-(isopropoxycarbonylamino)cyclohexyl]thiazol-5-yl]phenyl]carbamate] | 100 | 99% | – |
| Cc1cc(Nc2ccc(-c3cnc([C@H]4CC[C@H](NC(=O)OC(C)C)CC4)s3)c(P3(=O)CCCC3)c2)n[nH]1 [Example 47, isopropyl trans-N-[4-[5-[4-[(5-methyl-1H-pyrazol-3-yl)amino]-2-(1-oxidophospholan-1-yl)phenyl]thiazol-2-yl]cyclohexyl]carbamate] | 30 | 99% | – |
| CC(C)OC(=O)NC1CCC(c2ncc(-c3ccc(Nc4ccc(F)cn4)cc3S(=N)(=O)C3CC3)s2)CC1 (stereo not drawn) [Example 81, isopropyl trans-N-[4-[5-[2-(cyclopropylsulfonimidoyl)]-4-[(5-fluoro-2-pyridyl)amino]phenyl]thiazol-2-yl]cyclohexyl]carbamate] | 40 | 99.7%^ | – |
| CC(C)OC(=O)Nc1ccc(-c2cnc(C3CCC(NC(=O)OC(C)C)CC3)s2)c([S+]([O-])C(C)C)c1 (stereo not drawn) [Example 32, isopropyl trans-N-[4-[2-[4-(isopropoxycarbonylamino)cyclohexyl]thiazol-5-yl]-3-isopropylsulfinyl-phenyl]carbamate] | 420 | 99% | – |
| COc1ccc(-c2ccc(-c3cnc([C@H]4CC[C@H](NC(=O)OC(C)C)CC4)s3)c([S@@](=N)(=O)C3CC3)c2)cn1 (stereo in doubt) [Example 94] | – | 99.8%^ | 20 |
| CC(C)OC(=O)Nc1ccc(-c2cnc(C3CCC(NC(=O)OC(C)C)CC3)s2)c(S(=N)(=O)C(C)C)c1 (stereo not drawn) [Example 3, isopropyl trans-N-[4-[2-[4-(isopropoxycarbonylamino)cyclohexyl]thiazol-5-yl]-3-(isopropylsulfonimidoyl)phenyl]carbamate] | 1080 | 97% | – |
| CC(C)OC(=O)N[C@H]1CC[C@H](c2ncc(-c3ccc(Nc4n[nH]c5ccccc45)cc3S(=O)(=O)C3CC3)s2)CC1 [Example 56, isopropyl trans-(4-(5-(4-((1H-indazol-3-yl)amino)-2-(cyclopropylsulfonyl)phenyl)thiazol-2-yl)cyclohexyl)carbamate] | 7 | 97% | – |
| CC(C)OC(=O)N[C@H]1CC[C@H](c2ncc(-c3ccc(NC(=O)NCc4ccccc4)cc3S(=N)(=O)C3CC3)s2)CC1 (stereo partly drawn) [Example 65, isopropyl trans-(4-(5-(4-(3-benzylureido)-2-(cyclopropanesulfonimidoyl)phenyl)thiazol-2-yl)cyclohexyl)carbamate] | 37 | 97% | – |
| CC(C)OC(=O)Nc1ccc(-c2cnc([C@H]3CC[C@H](NC(=O)OC(C)C)CC3)s2)c(S(=O)(=O)C(C)C)c1 [Example 2, isopropyl trans-N-[4-[2-[4-(isopropoxycarbonylamino)cyclohexyl]thiazol-5-yl]-3-isopropylsulfonyl-phenyl]carbamate] | 390 | 99.4%^ | – |

Continued, values first:

| IC50 (Daudi cells; Homo sapiens, 72 h) [nM] | % Binding Rate (CD-1 mouse plasma) | IC50 (Daudi cells) [nM] | SMILES |
| --- | --- | --- | --- |
| 32 | 99% | – | Cc1cc(Nc2ccc(-c3cnc([C@H]4CC[C@H](NC(=O)OC(C)C)CC4)s3)c(S(=N)(=O)C3CC3)c2)n(C)n1 (stereo partly drawn) [Example 98, isopropyl trans-(4-(5-(2-(cyclopropanesulfonimidoyl)-4-((1,3-dimethyl-1H-pyrazol-5-yl)amino)phenyl)thiazol-2-yl)cyclohexyl)carbamate] |
| 55 | 95% | – | CC(C)OC(=O)N[C@H]1CC[C@H](c2ncc(-c3ccc(Nc4cn(C)nn4)cc3S(=N)(=O)C3CC3)s2)CC1 (some centres unmarked) [Example 54] |
| 26 | 96% | – | Cc1cc(Nc2ccc(-c3cnc(C4CCC(NC(=O)OC(C)C)CC4)s3)c(S(=N)(=O)C3CC3)c2)n[nH]1 (stereo not drawn) [Example 50, isopropyl trans-N-[4-[5-[2-(cyclopropylsulfonimidoyl)-4-]((5-methyl-1H-pyrazol-3-yl)amino]phenyl]thiazol-2-yl]cyclohexyl]carbamate] |
| 4 | 98.8%^ | – | Cc1cc(Nc2ccc(-c3cnc([C@H]4CC[C@H](NC(=O)OC(C)C)CC4)s3)c(S(=O)(=O)C3COC3)c2)n[nH]1 [Example 92, isopropyl trans-N-[4-[5-[4-[(5-methyl-1H-pyrazol-3-yl)amino]-2-(oxetan-3-ylsulfonyl)phenyl]thiazol-2-yl]cyclohexyl]carbamate] |
| 6 | 97% | – | Cc1cc(Nc2ccc(-c3cnc([C@H]4CC[C@H](NC(=O)OC(C)C)CC4)s3)c(S(=O)(=O)C3CC3)c2)nn1C [Example 49, isopropyl trans-(4-(5-(2-(cyclopropylsulfonyl)-4-((1,5-dimethyl-1H-pyrazol-3-yl)amino)phenyl)thiazol-2-yl)cyclohexyl)carbamate] |
| 6 | 99% | – | Cc1cc(Nc2ccc(-c3cnc([C@H]4CC[C@H](NC(=O)OC(C)C)CC4)s3)c(S(=O)(=O)C3CC3)c2)n[nH]1 [Example 48, isopropyl trans-(4-(5-(2-(cyclopropylsulfonyl)-4-((5-methyl-1H-pyrazol-3-yl)amino)phenyl)thiazol-2-yl)cyclohexyl)carbamate] |
| 7 | 99.9%^ | – | CC(C)OC(=O)N[C@H]1CC[C@H](c2ncc(-c3ccc(Nc4cc5ccccn5n4)cc3S(=O)(=O)C3CC3)s2)CC1 [Example 57, isopropyl trans-(4-(5-(2-(cyclopropylsulfonyl)-4-(pyrazolo[1,5-a]pyridin-2-ylamino)phenyl)thiazol-2-yl)cyclohexyl)carbamate] |

From patent US20230142274A1 (SIMCERE PHARMACEUTICAL CO., LTD., priority 2020, published 2023)
